According to paper PMC7023430, “4-Aminobenzoic Acid Derivatives: Converting Folate Precursor to Antimicrobial and Cytotoxic Agents” (Biomolecules, 2019):
≈ marks a conversion by molar mass, not a printed value. Like-named read-outs stand apart in the source and are kept apart here.

What was measured:
Candida tropicalis 156 = assay: Antifungal microdilution broth method, C. tropicalis; format: cell-based
Summary of the method: (§1)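 EUCAST-based broth microdilution, modified, in RPMI-1640 with L-glutamine, 2% glucose, MOPS-buffered to pH 7.0; compounds dissolved in DMSO and twofold diluted. MIC read visually, in duplicate, valid only if replicates agree within one dilution step.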

eight fungal strains = assay: Antifungal activity; format: cell-based; details: statement over the fungal panel; time not stated
Summary of the method: as §1

[1] = system: ESBL-positive Klebsiella pneumoniae J 14368/08
HepG2 cells = assay: Cytotoxicity, CellTiter 96 assay; format: cell-based, human; details: 24 h incubation
Experimental: HepG2, human hepatocellular carcinoma cells (ATCC HB-8065; passage 5–8) purchased from Health Protection Agency Culture Collections (ECACC, Salisbury, UK) were cultured in Minimum Essentials Eagle Medium supplemented with 10% fetal bovine serum, 1% L-glutamine solution and non-essential amino acid solution (Sigma-Aldrich, St. Louis, MO, USA) in a humidified atmosphere containing 5% CO2 at 37 °C. For subculturing, the cells were harvested after trypsin/EDTA (Sigma-Aldrich, St. Louis, USA) treatment at 37 °C. To evaluate cytotoxicity, the cells treated with the tested substances were used as experimental groups whereas untreated HepG2 cells served as control groups.
The cells were seeded in a density of 10 000 cells per well in a 96-well plate. The following day the cells were treated with each of the tested substances dissolved in DMSO (maximal incubation concentration of DMSO was 1% v/v). The tested substances were prepared at different incubation concentrations in triplicates according to their solubility. Simultaneously, the controls representing 100% cell viability, 0% cell viability (the cells treated with 10% DMSO), no cell control and vehiculum controls were also involved in triplicates. After 24 h incubation in a humidified atmosphere containing 5% CO2 at 37 °C, the reagent from the kit CellTiter 96 AQueous One Solution Cell Proliferation Assay (CellTiter 96; Promega, Fitchburg, WI, USA) was added. After 2 h incubation at 37 °C absorbance of samples was recorded at 490 nm (TECAN, Infinita M200, Grödig, Austria). A standard toxicological parameter IC50 was calculated by nonlinear regression from a semilogarithmic plot of incubation concentration versus percentage of absorbance relative to untreated controls using GraphPad Prism software (version 6; GraphPad Software, Inc., La Jolla, CA, USA).
The CellTiter 96 assay used is based on the reduction of tetrazolium dye in living cells to formazan, which is then determined colorimetrically. This reduction is related to availability of NADH or NADPH. The decline in levels of these metabolically important compounds in the cell causes that the production of formazan is reduced. For quantitative comparison of cytotoxicity, the parameter IC50 was used.

[2] = system: Candida albicans ATCC 44859; assay: Antifungal microdilution broth method, C. albicans; format: cell-based
Summary of the method: as §1

[3] = system: methicillin-resistant Staphylococcus aureus ATCC 43300, CCM 4750 (MRSA); assay: Antibacterial microdilution broth method, MRSA; format: cell-based; details: Staphylococcus aureus
[4] = system: four Gram-positive and four Gram-negative strains; assay: Antibacterial activity; format: cell-based; details: time not stated; read-out: MIC, S. epidermidis (1e MRSA, too)
[5] = ATCC44859, 24 h, read-out: MIC CA 24 h
[6] = ATCC44859, 48 h, read-out: MIC CA 48 h
[7] = 24 h incubation, read-out: MIC MRSA 24 h
[8] = 48 h incubation, read-out: MIC MRSA 48 h

SMILES	MIC (Candida tropicalis 156; 24 h, read-out: MIC CT 24 h) [µM]	MIC (Candida tropicalis 156; 48 h, read-out: MIC CT 48 h) [µM]	MIC (eight fungal strains) [µM]	MIC, antifungal activity (eight fungal strains)	MIC KP-E 24 h [1] [µM]	MIC KP-E 48 h [1] [µM]	IC50 (HepG2 cells; Homo sapiens, HepG2, 24 h) [µM]	MIC [2, 5] [µM]	MIC [2, 6] [µM]	MIC [3, 7] [µM]	MIC [3, 8] [µM]	MIC [4] [µM]	IC50 (HepG2 cells) [µM]
O=C(O)c1ccc(N=Cc2cc(F)ccc2O)cc1 [1b, 4-[(5-Fluoro-2-hydroxybenzylidene)amino]benzoic acid]	> 500	> 500	> 500	not translated into any antifungal action	>500	>500	498	> 500	> 500	> 500	> 500		
O=C(O)c1ccc(N=Cc2cc(Cl)ccc2O)cc1 [1c, 4-[(5-Chloro-2-hydroxybenzylidene)amino]benzoic acid]	125 (≈ 34.5 µg/mL)	125 (≈ 34.5 µg/mL)			>500	>500	143	> 125	> 125	> 500	> 500	≥ 62.5	
O=C(O)c1ccc(N=Cc2cc(Br)ccc2O)cc1 [1d, 4-[(5-Bromo-2-hydroxybenzylidene)amino]benzoic acid]	125 (≈ 40 µg/mL)	125 (≈ 40 µg/mL)			>250	>250	179	62.5 (≈ 20 µg/mL)	62.5 (≈ 20 µg/mL)	> 250	> 250	≥ 62.5	
O=C(O)c1ccc(N=Cc2cc(I)ccc2O)cc1 [1e, 4-[(2-Hydroxy-5-iodobenzylidene)amino]benzoic acid]	125 (≈ 45.9 µg/mL)	125 (≈ 45.9 µg/mL)	≥ 31.2		>250	>250	113	62.5 (≈ 22.9 µg/mL)	62.5 (≈ 22.9 µg/mL)	250 (≈ 91.8 µg/mL)	250 (≈ 91.8 µg/mL)	≥ 62.5	
Cc1ccc(O)c(C=Nc2ccc(C(=O)O)cc2)c1 [1g, 4-[(2-Hydroxy-5-methylbenzylidene)amino]benzoic acid]	> 125	> 125		not translated into any antifungal action	>500	>500	> 500	> 125	> 125	> 500	> 500		956
COc1ccc(O)c(C=Nc2ccc(C(=O)O)cc2)c1 [1h, 4-[(2-Hydroxy-5-methoxybenzylidene)amino]benzoic acid]	500 (≈ 136 µg/mL)	500 (≈ 136 µg/mL)	≥ 250		>500	>500	> 500	250 (≈ 67.8 µg/mL)	250 (≈ 67.8 µg/mL)	> 500	> 500		530
CC(C)(C)c1ccc(O)c(C=Nc2ccc(C(=O)O)cc2)c1 [1j, 4-{[5-(Tert-butyl)-2-hydroxybenzylidene]amino}benzoic acid]	> 500	> 500		not translated into any antifungal action	>500	>500	80.8	> 500	> 500	> 500	> 500		
O=C(O)c1ccc(N=Cc2c(O)cccc2Cl)cc1 [1k, 4-[(2-Chloro-6-hydroxybenzylidene)amino]benzoic acid]	62.5 (≈ 17.2 µg/mL)	125 (≈ 34.5 µg/mL)			>500	>500	280	125 (≈ 34.5 µg/mL)	125 (≈ 34.5 µg/mL)	> 500	> 500		
O=C(O)c1ccc(N=Cc2ccc(Cl)cc2O)cc1 [1l, 4-[(4-Chloro-2-hydroxybenzylidene)amino]benzoic acid]	500 (≈ 138 µg/mL)	> 500	≥ 250		>500	>500	264	250 (≈ 68.9 µg/mL)	> 500	> 500	> 500		
O=C(O)c1ccc(N=Cc2cccc(Cl)c2O)cc1 [1m, 4-[(3-Chloro-2-hydroxybenzylidene)amino]benzoic acid]	62.5 (≈ 17.2 µg/mL)	62.5 (≈ 17.2 µg/mL)	≥ 31.2		>500	>500	247	31.2 (≈ 8.62 µg/mL)	31.2 (≈ 8.62 µg/mL)	> 500	> 500		
O=C(O)c1ccc(N=Cc2cc(Cl)cc(Cl)c2O)cc1 [1n, 4-[(3,5-Dichloro-2-hydroxybenzylidene)amino]benzoic acid]	250 (≈ 77.5 µg/mL)	250 (≈ 77.5 µg/mL)	≥ 125		>500	>500	98.7	125 (≈ 38.8 µg/mL)	125 (≈ 38.8 µg/mL)	250 (≈ 77.5 µg/mL)	250 (≈ 77.5 µg/mL)		
O=C(O)c1ccc(N=Cc2cc(Cl)cc(Br)c2O)cc1 [1o, 4-[(3-Bromo-5-chloro-2-hydroxybenzylidene)amino]benzoic acid]	62.5 (≈ 22.2 µg/mL)	62.5 (≈ 22.2 µg/mL)			500 (≈ 177 µg/mL)	500 (≈ 177 µg/mL)	85.7	31.2 (≈ 11.1 µg/mL)	31.2 (≈ 11.1 µg/mL)	31.2 (≈ 11.1 µg/mL)	31.2 (≈ 11.1 µg/mL)		
O=C(O)c1ccc(N=Cc2cc(Cl)cc(I)c2O)cc1 [1p, 4-[(5-Chloro-2-hydroxy-3-iodobenzylidene)amino]benzoic acid]	31.2 (≈ 12.5 µg/mL)	31.2 (≈ 12.5 µg/mL)			125 (≈ 50.2 µg/mL)	125 (≈ 50.2 µg/mL)	53.4	7.81 (≈ 3.14 µg/mL)	7.81 (≈ 3.14 µg/mL)	15.6 (≈ 6.27 µg/mL)	15.6 (≈ 6.27 µg/mL)		
O=C(O)c1ccc(N=Cc2cc(I)cc(I)c2O)cc1 [1q, 4-[(2-Hydroxy-3,5-diiodobenzylidene)amino]benzoic acid]	15.6 (≈ 7.7 µg/mL)	15.6 (≈ 7.7 µg/mL)			500 (≈ 247 µg/mL)	500 (≈ 247 µg/mL)	57.8	7.81 (≈ 3.85 µg/mL)	7.81 (≈ 3.85 µg/mL)	62.5 (≈ 30.8 µg/mL)	62.5 (≈ 30.8 µg/mL)		
